What was measured:
[1] = target: human TLR7 (Homo sapiens (Human), UniProt Q9NYK1); assay: HEK-Blue TLR7 reporter assay for TLR7 agonist activity; assay type: cell-based; settings: HEK-Blue TLR7 cells, SEAP reporter, 18 h treatment; read-out: TLR7 Agonism (EC50)
Protocol: This example describes a method for assaying TLR7 agonist activity of the compounds disclosed in this specification.
HEK-Blue™ TLR7 cells were added to each well of a 384-well tissue-culture plate (15,000 cells per well) and incubated 16-18 h at 37° C., 5% CO2. Compounds (100 nl) were dispensed into wells containing the HEK-Blue™ TLR cells and the treated cells were incubated at 37° C., 5% CO2. After 18 h treatment ten microliters of freshly-prepared Quanti-Blue™ reagent (Invivogen) was added to each well, incubated for 30 min (37° C., 5% CO2) and SEAP levels measured using an Envision plate reader (OD=620 nm).

[2] = system: interleukin 6 (IL-6); assay: IL-6 induction in human whole blood (AlphaLISA); assay type: cell-based; settings: 37° C., 20 h
Protocol: This example describes a method for assaying interleukin 6 induction by compounds disclosed in this specification.
Compounds diluted in DMSO were transferred to individual wells of a Matrix Technologies clear, V-bottom 384-well plate using ECHO acoustic liquid handling technology (25 nL per well). Human whole-blood samples (25 uL) were added to each well using a CyBio FeliX liquid handling instrument. The plate was shaken on a plate shaker for three min before incubating the reaction mixtures at 37° C. for 20 h. Basel RPMI 1640 medium (supplemented with L-glutamine) was then added to each well (25 uL per well) prior to liberating plasma from each sample by centrifugation (450×g, 5 min, ambient temperature). Treated plasma samples (3 uL) were subsequently transferred to individual wells of a white, shallow, 384-well ProxiPlate (Perkin Elmer) using the FeliX liquid handling instrument and their interleukin 6 levels were measured using AlphaLISA technology as described by the manufacturer, PerkinElmer. Data analyses software was used to determine compound EC50 values where the baseline was established using average DMSO values and 100% induction established using reference compound values at the highest concentration tested. EC50's can be determined with software such as Graphpad Prism™.

[3] = system: IFN-α; settings: fold lower potency vs corresponding purine-8-one compound; cited from earlier work

Chain of human TLR7 (Q9NYK1 27-1049): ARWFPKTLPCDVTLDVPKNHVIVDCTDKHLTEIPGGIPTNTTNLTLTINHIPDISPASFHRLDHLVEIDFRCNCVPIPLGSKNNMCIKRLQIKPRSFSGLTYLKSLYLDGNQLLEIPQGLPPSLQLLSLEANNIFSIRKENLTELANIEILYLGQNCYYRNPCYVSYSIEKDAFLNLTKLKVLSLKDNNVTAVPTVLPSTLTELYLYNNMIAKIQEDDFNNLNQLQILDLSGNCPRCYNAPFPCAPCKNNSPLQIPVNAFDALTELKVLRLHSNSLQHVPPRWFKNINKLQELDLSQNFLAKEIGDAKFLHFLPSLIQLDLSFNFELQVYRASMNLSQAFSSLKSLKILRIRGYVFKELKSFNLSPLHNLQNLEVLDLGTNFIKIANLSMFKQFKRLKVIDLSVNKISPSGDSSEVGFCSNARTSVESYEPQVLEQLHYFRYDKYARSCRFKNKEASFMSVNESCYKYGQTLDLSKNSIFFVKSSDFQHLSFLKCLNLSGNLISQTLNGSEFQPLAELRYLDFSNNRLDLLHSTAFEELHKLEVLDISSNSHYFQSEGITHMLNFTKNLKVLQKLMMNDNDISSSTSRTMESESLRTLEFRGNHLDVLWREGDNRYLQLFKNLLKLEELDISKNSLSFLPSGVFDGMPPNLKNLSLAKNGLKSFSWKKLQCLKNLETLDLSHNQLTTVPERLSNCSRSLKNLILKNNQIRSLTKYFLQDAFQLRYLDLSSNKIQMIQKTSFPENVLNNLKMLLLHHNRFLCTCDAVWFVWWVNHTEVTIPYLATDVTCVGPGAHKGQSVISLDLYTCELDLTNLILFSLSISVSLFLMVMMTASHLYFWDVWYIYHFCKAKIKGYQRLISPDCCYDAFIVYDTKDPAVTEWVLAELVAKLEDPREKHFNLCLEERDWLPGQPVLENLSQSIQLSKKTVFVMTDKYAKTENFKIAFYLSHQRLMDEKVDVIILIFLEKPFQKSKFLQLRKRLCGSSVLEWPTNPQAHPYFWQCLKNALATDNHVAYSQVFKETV

Row | Compound | EC50 [1] [µM] | EC50 [2] [µM] | potency less than that of the corresponding purine-8-one compound, as measured by IFN-α induction [3] [×]
1 | CCCCOc1nc(N)c2nc(O)n(Cc3ccc(CNCc4ccc(N)cc4)nc3)c2n1 [Ic-07] | 0.011 | 0.02 | –
2 | CCCCOc1nc(N)c2nc(O)n(Cc3cnc(CO)cn3)c2n1 [Compound 6] | 0.288 | – | –
3 | CCCCNCc1ccc(Cn2c(O)nc3c(N)nc(OCCCC)nc32)nc1 [Ib-01] | 0.015 | 0.077 | –
4 | CCCCOc1nc(N)c2nc(O)n(Cc3cnc(CNC)cn3)c2n1 [Ia-10] | 0.29 | 0.57 | –
5 | CCCCOc1nc(N)c2nc(O)n(Cc3ccc(CNCCCN)cn3)c2n1 [Ib-05] | 0.062 | 0.26 | –
6 | CCCCOc1nc(N)c2nc(O)n(Cc3ccc(CNC4CC4)cn3)c2n1 [Ib-03] | 0.018 | 0.062 | –
7 | CCCCOc1nc(N)c2nc(O)n(Cc3cnc(CNCC4COC4)cn3)c2n1 [Ia-02] | 11.2 | – | –
8 | CCCCOc1nc(N)c2nc(O)n(Cc3ccc(CNCCCN)nc3)c2n1 [Ic-05] | 0.014 | 0.028 | –
9 | CCCCOc1nc(N)c2nc(O)n(Cc3ccc(CNCc4ccccc4)cn3)c2n1 [Ib-06] | – | 0.19 | –
10 | CCCCNCc1cnc(Cn2c(O)nc3c(N)nc(OCCCC)nc32)cn1 [Ia-09] | 0.089 | 0.42 | –
11 | CCCCOc1nc(N)c2nc(O)n(Cc3cnc(CNCCOC)cn3)c2n1 [Ia-04] | 0.31 | 0.6 | –
12 | CCCCOc1nc(N)c2nc(O)n(Cc3ccc(CNCCC)nc3)c2n1 [Ic-10] | 0.0061 | 0.027 | –
13 | CCCCOc1nc(N)c2c(n1)N(Cc1cccc(CN3CCCC3)c1)CC(=O)N2 [Vesatolimod, vesatolimod] | – | – | 100
14 | CCCCCCNCc1ccc(Cn2c(O)nc3c(N)nc(OCCCC)nc32)cn1 [Ic-09] | – | 0.037 | –
15 | CCCCOc1nc(N)c2nc(O)n(Cc3ccc(CNCCCOCCOCCOCCCNC(=O)OC(C)(C)C)nc3)c2n1 [Ic-08] | 0.023 | 0.15 | –
16 | CCCCOc1nc(N)c2nc(O)n(Cc3ccc(CNC4CCC4)cn3)c2n1 [Ib-04] | 0.012 | 0.078 | –
17 | CCCCOc1nc(N)c2nc(O)n(Cc3ccc(CN4CCC(N)CC4)nc3)c2n1 [Ic-12] | – | 0.013 | –

Row | Compound | EC50 [1] [µM] | EC50 [2] [µM] | potency less than that of the corresponding purine-8-one compound, as measured by IFN-α induction [3] [×]
18 | CCCCOc1nc(N)c2nc(O)n(Cc3cnc(CNCc4ccccc4)cn3)c2n1 [Ia-03] | 0.18 | 1 | –
19 | CCCCOc1nc(N)c2nc(O)n(Cc3cnc(CNC(C)C)cn3)c2n1 [Ia-06] | 0.083 | 0.21 | –
20 | CCCCOc1nc(N)c2nc(O)n(Cc3ccc(CN4CCC(CN)CC4)nc3)c2n1 [Ic-13] | – | 0.011 | –
21 | CCCCOc1nc(N)c2nc(O)n(Cc3ccc(CNCCOC)nc3)c2n1 [Ic-02] | 0.009 | – | –
22 | CCCCOc1nc(N)c2nc(O)n(Cc3ccc(CNC4CCCC4)nc3)c2n1 [Ic-11] | – | 0.023 | –
23 | CCCCOc1nc(N)c2nc(O)n(Cc3cnc(CNC4CCC4)cn3)c2n1 [Ia-08] | 0.024 | 0.22 | –
24 | CCCCOc1nc(N)c2nc(O)n(Cc3ccc(CNCCCOCCOCCOCCCNC(=O)OC(C)(C)C)cn3)c2n1 [Ib-08] | 0.047 | 0.33 | –
25 | CCCCOc1nc(N)c2nc(O)n(Cc3ccc(CNCc4ccccc4)nc3)c2n1 [Ic-06] | – | 0.18 | –
26 | CCCCOc1nc(N)c2nc(O)n(Cc3ccc(CNC4CC4)nc3)c2n1 [Ic-03] | 0.0053 | 0.014 | –
27 | CCCCNCc1ccc(Cn2c(O)nc3c(N)nc(OCCCC)nc32)cn1 [Ic-01] | 0.0048 | 0.026 | –
28 | CCCCOc1nc(N)c2nc(O)n(Cc3ccccc3)c2n1 [Compound B, reference compound] | 0.47 | – | –
29 | CCCCOc1nc(N)c2nc(O)n(Cc3cnc(CNC4COC4)cn3)c2n1 [Ia-07] | 0.49 | 1 | –
30 | CCCCOc1nc(N)c2nc(O)n(Cc3ccc(CNCCOC)cn3)c2n1 [Ib-02] | 0.028 | 0.11 | –
31 | CCCCOc1nc(N)c2nc(O)n(Cc3ccc(CNCc4ccc(N)cc4)cn3)c2n1 [Ib-07] | 0.041 | 0.1 | –
32 | CCCCOc1nc(N)c2nc(O)n(Cc3cnc(CNC4CC4)cn3)c2n1 [Ia-05] | 0.14 | 0.36 | –
33 | CCCCOc1nc(N)c2nc(O)n(Cc3cnc(CNCc4ccncc4)cn3)c2n1 [Ia-01] | 0.33 | 1 | –
